According to patent US9546179B2, “Heterocycle amido alkyloxy substituted quinazoline derivative and use thereof” (priority 2011, dated 2017):

Assays:
[1] = tested on: Human lung cancer cells (A549); assay: Anticancer effect in vitro on A549 cells (MTT, GI50); type: cell-based; conditions: A549, 72 hours
Description: The inhibitory effect on the cancer cells of the compounds prepared in Example 1-Example 13, Example 20, Example 48, Example 49 and Example 57 was determined in vitro using cancer cells. The results are shown in table 2, and the specific detection methods are as follows:
Human lung cancer cells were (A549, purchased from Shanghai FuMeng Gene Bio-technology Co., Ltd.) cultured in DMEM containing 2 m M/L-glutamine and 10% FBS, and inoculated in 96-well plate, 200 μL/well and 2000 cells per well; the plate was preincubated for 24 hours under the condition of 5% CO2 and 100% relative humidity at 37° C., allowing for cell adherence.
When the cells adhered, the supernatant was removed, and 200 μL drug-containing culture medium was added with different concentration of compounds into each well (in concentration of 20 μg/ml, 12.5 µg/ml, 6.25 μg/ml, […], 1.5625 μg/ml and 0.78125 μg/ml), 3 multiple wells were set up for each drug concentration as well as blank control (cell culture medium without cells), and drug-free control (with no drugs, filled with complete medium in equal amount only), cultured for 72 hours under the condition of 5% CO2 incubator at 37° C. (100% relative humidity).
After the culture ended, the supernatant was carefully removed, and adding 200 μl DMEM culture medium containing 3% FBS with 500 μg/ml MTT into each well, and culturing for 4 hours under the condition of 5% CO2 incubator at 37° C. (100% relative humidity). After the supernatant was discarded, 150 μL DMSO was added in each well for solving. the GI50 value was measured by detecting the absorbance in the 570 nm wavelength.

[2] = target: T1, receptor tyrosine kinase EGFR (Homo sapiens, UniProt P00533); assay: Inhibitory effect on receptor tyrosine kinase EGFR (ELISA, Poly(Glu, Tyr)4:1, PY99 antibody); type: biochemical; conditions: ATP 4 μM, 1 hour at 37° C.
T1 construct: purchased Shanghai 3bio Technology Co., Ltd. Lot No. 4018780925
T1 sequence (P00533 25-1210): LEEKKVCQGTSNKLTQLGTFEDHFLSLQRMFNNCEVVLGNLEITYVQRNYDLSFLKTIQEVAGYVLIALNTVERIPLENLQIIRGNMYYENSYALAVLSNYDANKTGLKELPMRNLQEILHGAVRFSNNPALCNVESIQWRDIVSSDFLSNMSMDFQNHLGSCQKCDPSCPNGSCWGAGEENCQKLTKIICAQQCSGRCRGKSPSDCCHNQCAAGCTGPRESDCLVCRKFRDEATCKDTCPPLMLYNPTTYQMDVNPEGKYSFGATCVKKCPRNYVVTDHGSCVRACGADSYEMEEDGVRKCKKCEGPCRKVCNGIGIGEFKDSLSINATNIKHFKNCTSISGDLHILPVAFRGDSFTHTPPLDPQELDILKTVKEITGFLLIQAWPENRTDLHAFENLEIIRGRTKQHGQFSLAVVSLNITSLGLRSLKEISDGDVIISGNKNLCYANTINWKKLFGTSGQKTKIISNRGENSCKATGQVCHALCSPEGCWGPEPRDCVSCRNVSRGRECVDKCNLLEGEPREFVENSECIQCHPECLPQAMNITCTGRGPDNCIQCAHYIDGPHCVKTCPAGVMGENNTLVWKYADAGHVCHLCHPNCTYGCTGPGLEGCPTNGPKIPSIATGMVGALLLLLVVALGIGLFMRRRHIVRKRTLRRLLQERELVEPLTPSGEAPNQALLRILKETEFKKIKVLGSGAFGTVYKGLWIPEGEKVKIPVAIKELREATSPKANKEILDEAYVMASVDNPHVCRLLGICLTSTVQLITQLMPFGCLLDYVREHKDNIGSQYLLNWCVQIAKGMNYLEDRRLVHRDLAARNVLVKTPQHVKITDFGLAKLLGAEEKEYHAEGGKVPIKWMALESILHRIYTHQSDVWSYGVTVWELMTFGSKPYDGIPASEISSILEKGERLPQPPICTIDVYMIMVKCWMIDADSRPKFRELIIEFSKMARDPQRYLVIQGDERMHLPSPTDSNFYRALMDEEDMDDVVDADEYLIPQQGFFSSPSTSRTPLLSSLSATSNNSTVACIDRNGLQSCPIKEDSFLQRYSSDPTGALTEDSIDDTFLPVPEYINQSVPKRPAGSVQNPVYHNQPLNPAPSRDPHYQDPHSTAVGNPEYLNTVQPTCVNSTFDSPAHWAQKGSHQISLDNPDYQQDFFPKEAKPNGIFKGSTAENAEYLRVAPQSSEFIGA
Description: Poly(Glu, Tyr)4:1 was diluted into 100 μg/ml by PBS without potassium. Enzyme label plate was coated with 37 μl/well at 37° C. overnight,
The liquid in the wells was removed. The plate was rinsed by T-PBS for 5 minutes, and dried at 37° C. after repeated 3 times.
The testing sample was diluted to the concentration concerned by reaction buffer solution, and added into the wells of the coated enzyme label plate. The concentration diluted should realize 1.0000 μg/ml, 0.1250 μg/ml, 0.0156 μg/ml, 0.00195 μg/ml and 0.00024 μg/ml in the 100 μl reaction.
Adding in ATP solution (4 μM of final concentration) diluted by reaction buffer solution,
Finally, the tyrosine kinase diluted by reaction buffer solution was added, and forming the reaction with 100 μl total volume.
Meanwhile, negative control wells and enzyme-free control wells were prepared. The reaction was kept in the dark wet box for 1 hour at 37° C. The plate was rinsed by T-PBS for three times after the reaction ended, and blocked by 1% BSA […] for 30 min, and then, PY99 antibody (1:1000 diluted by 0.05% PBST with 1% BSA) was added in 100 μl/well. After incubated at 37° C. for 30 minutes, the plate was rinsed by T-PBS for three times, and the goat anti-mouse IgG marked with HRP (1 mg/ml 1:1000 diluted by 0.05% PBST with 1% BSA) was then added in 100 μl/well. After incubated at 37° C. for 30 minutes, the plate was rinsed by T-PBS for three times.
Colorimetric solution OPD was added in 100 μl/well for 20 minutes' reaction in the dark side at the room temperature. Colorimetric substrate solution OPD was the solution of 0.1 mol/L citric acid-disodium hydrogen phosphate buffer (pH 5.0) with 20 mmol/L OPD and 12 mmol/L H2O2 (freshly prepared when using).
50 μl of 2M H2SO4 (2 mol/L sulfuric acid containing 0.1 mol/L sodium sulfate) was added in to terminate the reaction, and the A492 value was read with adjustable wavelength micro late enzyme-labeling instrument VERSAmax.
The inhibition rate of samples is calculated by the following formula: […]

Row | Structure (SMILES) | GI50 [1] [nM] | IC50 [2] [nM]
1 | COc1cc2ncnc(Nc3ccc(F)c(Cl)c3)c2cc1OCCN1CCC2(CCOCC2)C1 [Example 10, 4-(3′-chloro-4′-fluorophenylamino)-6-[2-(8-oxa-2-azaspiro[4.5]decane-2-yl)-oxethyl]-7-methoxyquinazoline] | 35200 | 10 to 100
2 | COc1cc2ncnc(Nc3cc(Cl)ccc3F)c2cc1OCCCN1CC[C@H]2OCC[C@H]21 (relative stereo) [Example 20, 4-(5′-chloro-2′-fluorophenylamino)-6-[3-(cis-hexahydrofuro[3,2-b]pyrrole-4-yl)-propoxy]-7-methoxyquinazoline] | 59500 | 10 to 100
3 | COc1cc2ncnc(Nc3ccc(F)c(Cl)c3)c2cc1OCCN1CC2(CNC(=O)C2)C1 [Example 57, 4-(3′-chloro-4′-fluorophenylamino)-6-[2-(2,6-diazaspiro[3.4]octane-7-ketone-2-yl)-oxethyl]-7-m ethoxyquinazoline] | 23800 | > 1000
4 | COc1cc2ncnc(Nc3ccc(F)c(Cl)c3)c2cc1OCCCN1CCC2(CCOC2)C1 (centres unmarked) [Example 7, 4-(3′-chloro-4′-fluorophenylamino)-6-[3-(2-oxa-7-azaspiro[4.4]nonane-7-yl)-propoxy]-7-methoxyquinazoline] | 15100 | 10 to 100
5 | C#Cc1cccc(Nc2ncnc3cc(OC)c(OCCCN4CCC5(CCOC5)C4)cc23)c1 (centres unmarked) [Example 40, 4-(3′-ethynylphenylamino)-6-[3-(2-oxa-7-azaspiro[4.4]-nonane-7-yl)-propoxy]-7-methoxyquinazoline] | – | 10 to 100
6 | COc1cc2ncnc(Nc3cc(Cl)ccc3F)c2cc1OCCCN1CCC2(CC1)CNC(=O)C2 [Example 21, 4-(5′-chloro-2′-fluorophenylamino)-6-[3-(2,8-diazaspiro[4.5]decyl-3-ketone-8-yl)-propoxy]-7-methoxyquinazoline] | – | 10 to 100
7 | COc1cc2ncnc(Nc3ccc(F)c(Cl)c3)c2cc1OCCCN1CCC2(CCNC2=O)CC1 [Example 82, 4-(3′-chloro-4′-fluorophenylamino)-6-[3-(2,8-diazaspiro[4.5]decane-1-ketone-8-yl)-propoxy]-7-methoxyquinazoline] | – | 10 to 100
8 | COc1cc2ncnc(Nc3ccc(F)c(Cl)c3)c2cc1OCCCN1CCC2(CC1)CC(=O)N(C)C2 [Example 83, 4-(3′-chloro-4′-fluorophenylamino)-6-[3-(2-methyl-2,8-diazaspiro[4.5]decane-3-ketone-8-yl)-propoxy]-7-methoxyquinazoline] | – | 0.1 to 10
9 | COc1cc2ncnc(Nc3ccc(F)c(Cl)c3)c2cc1OCCCN1CCC2(CC1)CNC(=O)C2 [Example 79] | – | 0.1 to 10
10 | COc1cc2ncnc(Nc3cccc(Cl)c3F)c2cc1OCCCN1CCC2(COC2)C1 [Example 28, 4-(3′-chloro-2′-fluorophenylamino)-6-[3-(2-oxa-6-azaspiro[3.4]octane-6-yl)-propoxy]-7-methoxyquinazoline] | – | 10 to 100
11 | C#Cc1cccc(Nc2ncnc3cc(OC)c(OCCCN4CCC5(C4)CN(C)C(=O)O5)cc23)c1 (centres unmarked) [Example 47, 4-(3′-ethynylphenylamino)-6-[3-(3-methyl-1-oxa-3,7-diazaspiro[4.4]nonane-2-ketone-7-yl)-propoxy]-7-methoxyquinazoline] | – | 10 to 100
12 | C#Cc1cccc(Nc2ncnc3cc(OC)c(OCCCN4CC5(CNC(=O)C5)C4)cc23)c1 [Example 45, 4-(3′-ethynylphenylamino)-6-[3-(2,6-diazaspiro[3.4]octane-7-ketone-2-yl)-propoxy]-7-methoxyquinazoline] | – | 10 to 100
13 | COc1cc2ncnc(Nc3cc(Cl)ccc3F)c2cc1OCCCN1CCC2(CCOC2)C1 (centres unmarked) [Example 15, 4-(5′-chloro-2′-fluorophenylamino)-6-[3-(2-oxa-7-azaspiro[4.4]nonane-7-yl)-propoxy]-7-methoxyquinazoline] | – | 10 to 100

Continued, values first:

Row | GI50 [1] [nM] | IC50 [2] [nM] | Structure (SMILES)
14 | 8500 | 10 to 100 | COc1cc2ncnc(Nc3ccc(F)c(Cl)c3)c2cc1OCCCN1CC2(CCOCC2)C1 [Example 4, 4-(3′-chloro-4′-fluorophenylamino)-6-[3-(7-oxa-2-azaspiro[3.5]nonane-2-yl)-propoxy]-7-methoxyquinazoline]
15 | 20700 | 10 to 100 | COc1cc2ncnc(Nc3ccc(F)c(Cl)c3)c2cc1OCCN1CCC2(CC1)COC2 [Example 6]
16 | 24300 | 10 to 100 | COc1cc2ncnc(Nc3ccc(F)c(Cl)c3)c2cc1OCCCN1CCC2(CCOCC2)C1 [Example 9, 4-(3′-chloro-4′-fluorophenylamino)-6-[3-(8-oxa-2-azaspiro[4.5]decane-2-yl)-propoxy]-7-methoxyquinazoline]
17 | 17800 | 0.1 to 10 | C#Cc1cccc(Nc2ncnc3cc(OC)c(OCCCN4CC5(CNC(=O)O5)C4)cc23)c1 [Example 48]
18 | 8600 | 10 to 100 | COc1cc2ncnc(Nc3ccc(F)c(Cl)c3)c2cc1OCCCN1CCC2(CC1)COC2 [Example 5, 4-(3′-chloro-4′-fluorophenylamino)-6-[3-(2-oxa-7-azaspiro[3.5]nonane-7-yl)-propoxy]-7-methoxyquinazoline]
19 | 21000 | 0.1 to 10 | C#Cc1cccc(Nc2ncnc3cc(OC)c(OCCCN4CC5(C4)CN(C)C(=O)O5)cc23)c1 [Example 49]
20 | 23400 | 10 to 100 | COc1cc2ncnc(Nc3ccc(F)c(Cl)c3)c2cc1OCCN1CCC2(CCOC2)C1 (centres unmarked) [Example 8, 4-(3′-chloro-4′-fluorophenylamino)-6-[2-(2-oxa-7-azaspiro[4.4]nonane-7-yl)-oxethyl]-7-methoxyquinazoline]
21 | – | 10 to 100 | C#Cc1cccc(Nc2ncnc3cc(OC)c(OCCCN4CC5(CCOCC5)C4)cc23)c1 [Example 39, 4-(3′-ethynylphenylamino)-6-[3-(7-oxa-2-azaspiro[3.5]nonane-2-yl)-propoxy]-7-methoxyquinazoline]
22 | – | 10 to 100 | COc1cc2ncnc(Nc3cccc(Cl)c3F)c2cc1OCCCN1CCC2(CCC(=O)N2)CC1 [Example 32, 4-(3′-chloro-2′-fluorophenylamino)-6-[3-(1,8-diazaspiro[4.5]decane-2-ketone-8-yl)-propoxy]-7-methoxyquinazoline]
23 | – | 10 to 100 | C#Cc1cccc(Nc2ncnc3cc(OC)c(OCCCN4CCC5(CCC(=O)N5)CC4)cc23)c1 [Example 74, 4-(3′-ethynylphenylamino)-6-[3-(1,8-diazaspiro[4.5]decane-2-ketone-8-yl)-propoxy]-7-methoxyquinazoline]
24 | – | 0.1 to 10 | C#Cc1cccc(Nc2ncnc3cc(OC)c(OCCCN4CCC5(CCN(C(C)=O)C5)C4)cc23)c1 (centres unmarked) [Example 51, 4-(3′-ethynylphenylamino)-6-[3-(7-acetyl-2,7-diazaspiro[4.4]-nonane-2-yl)-propoxy]-7-methoxyquinazoline]
25 | – | 100 to 1000 | C#Cc1cccc(Nc2ncnc3cc(OC)c(OCCCN4CCC5(CCOCC5)C4)cc23)c1 [Example 41, 4-(3′-ethynylphenylamino)-6-[3-(8-oxa-2-azaspiro[4.5]decane-2-yl)-propoxy]-7-methoxyquinazoline]
26 | – | 10 to 100 | COc1cc2ncnc(Nc3ccc(F)c(Cl)c3)c2cc1OCCCN1CC2(CNC(=O)C2)C1 [Example 86, 4-(3′-chloro-4′-fluorophenylamino)-6-[3-(2,6-diazaspiro[3.4]octane-7-ketone-2-yl)-propoxy]-7-methoxyquinazoline]
27 | – | 0.1 to 10 | COc1cc2ncnc(Nc3cccc(Cl)c3F)c2cc1OCCCN1CC2(CNC(=O)O2)C1 [Example 36, 4-(3′-chloro-2′-fluorophenylamino)-6-[3-(5-oxa-2,7-diazaspiro[3.4]octane-6-ketone-2-yl)-propoxy]-7-methoxyquinazoline]
